# Earlier results, collected in patent US9301906B2, “Dentrifice composition” (Kao Corporation, priority 2011, dated 2016).
row,solubility in 100 g of an aqueous solution at 20° C.,Structure (SMILES)
1,36 g in 100 g of an aqueous solution,OC[C@@H](O)[C@@H](O)CO [erythritol]
2,60 g in 100 g of an aqueous solution,OC[C@@H](O)[C@@H](O[C@H]1O[C@H](CO)[C@@H](O)[C@H](O)[C@H]1O)[C@H](O)[C@@H](O)CO [maltitol]
3,18 g in 100 g of an aqueous solution,OC[C@@H](O)[C@@H](O)[C@H](O)[C@H](O)CO [mannitol]
4,72 g in 100 g of an aqueous solution,OC[C@@H](O)[C@@H](O)[C@H](O)[C@@H](O)CO [sorbitol]
5,66 g in 100 g of an aqueous solution,OC[C@@H](O)[C@H](O)[C@@H](O)CO [xylitol]
